Literature values as cited in patent publication EP4233849A1, “PHARMACEUTICAL COMPOSITION COMPRISING POMALIDOMIDE” (KRKA, d.d., Novo mesto, priority 2022, dated 2023).
Where two headings read alike, the source gives them in different places.

Key:
[1] = accelerated and room temperature conditions; anhydrous lactose, microcrystalline cellulose, anhydrous dibasic calcium phosphate, croscarmellose sodium, magnesium stearate
[2] = according to BCS classification

In the case of `Nc1cccc2c1C(=O)N(C1CCC(=O)NC1=O)C2=O` (racemic) [Pomalidomide, (RS) 4-Amino-2-(2,6-dioxopiperidin-3-yl)isoindole-1,3-dione], the “stability in the presence of particular excipients” value [1] is given as “instability problems”, the solubility [2] is given as “low solubility” and the solubility (in absolute ethanol, ethyl acetate, heptane, methanol, 2-propanol and toluene) is given as “very slightly soluble”. For the same compound, the solubility (in acetone, acetonitrile, methylene chloride, methyl ethyl ketone and tetrahydrofuran) was “slightly soluble” and the solubility (in water) was “practically insoluble”.
